Reference: a melting point compilation (Tetko et al.; mined from patent text by program, amines drawn as free bases though some values may be those of a salt)

Row | melting point [°C] | Compound
1 | 114 to 115 | C=CCN(C(C)=O)c1cccc(-c2ccc3nnc(C)n3n2)c1
2 | 96 to 97 | Cc1cc(=O)[nH]c2c1C(=O)CCC2
3 | 218 to 219 | O=C(O)Cc1nc(-c2ccc(Cl)cc2)oc1-c1ccoc1
4 | 167 to 169 | Cn1c(C(F)(F)F)cc(=O)n(-c2ccc(OCc3ccc(Cl)cc3)cc2)c1=O
5 | 62 to 64 | COc1nc(Cl)ccc1C=O
6 | 130 to 135 | CCOc1ccccc1N(C[C@H]1CCC[C@H](CN(C(=O)Nc2ccc(N(C)C)cc2)c2ccccc2OCC)C1)C(=O)Nc1ccc(N(C)C)cc1 (relative stereo)
7 | 173 to 174 | CC(C)OC(=O)c1ccc2c(c1)ncn2-c1cccc(N2CCN(C)CC2)c1
8 | 250 to 251 | CN1N=C(c2ccc(F)cc2)c2ccc(Cl)cc2CS1(=O)=O
9 | 228 to 230 | CC(=O)NCc1ncc(-n2nc(C)cc2C)nc1Nc1ccc(Cl)cc1
10 | 84 to 85 | Cc1ccc2c(c1)c1c(n2C)CC(C(=O)O)CC1 (stereo not given)
11 | 87 to 89 | CCCc1c(OCCCCc2ccc3cc(OCc4ccccc4)c(OCc4ccccc4)cc3c2)ccc(C(=O)OCc2ccccc2)c1O
12 | 158 to 161 | CC(C)C[C@H](NC(=O)OC(C)(C)C)C(=O)N[C@@H](C(C)C)[C@@H](O)c1c(-c2ccccc2)c1=O
13 | 183 to 185 | COc1ccc(CNc2nccc(-c3c[nH]nc3-c3ccc(F)cc3)n2)cc1
14 | 120 to 124 | CCN(CC)C(=O)Cc1c(-c2ccc(OC)cc2)nn2c(C)cc(C)nc12
15 | 56 | Cc1ccccc1OCc1ccccc1N
16 | 115 to 117 | CC(C)CCCC(C)C1CCC2C3=C(CCC21C)C1(C)CCC(O)CC1CC3=O (stereo not given)
17 | 250 to 255 | CC(C)c1nc2c([nH]1)C(=O)N1CCN=C1N2Cc1ccccc1Cl
18 | 157 to 159 | CCCCCC(CC(=O)Nc1cc(C(=O)NC(=O)C(C)C)ccc1C(C)(C)C)c1ccc(OC)cc1OC (stereo not given)
19 | 140 to 142 | CNC(=O)C(C)Oc1cc(Oc2nn(C)c(C(F)(F)F)c2Cl)ccc1[N+](=O)[O-] (stereo not given)
20 | 129 to 131 | COc1cccc(CN2CCC3(CC2)CSC2=C(O3)c3ccccc3C(=O)C2=O)c1
21 | 137 to 140 | Cc1ccc(S(=O)(=O)OC2CCN(S(=O)(=O)c3ccc(C)cc3)CC2)cc1
22 | 152 to 154 | CC(=O)Nc1c(C(=O)c2cccc(Cl)c2)[nH]c2cc(Cl)ccc12
23 | 148 | CC(C)n1nc(O)ccc1=O

Row | melting point [°C] | Compound
24 | 70 to 72 | Clc1cc(-c2ccccc2)ccn1
25 | 59 to 61 | CCCN(C(=S)n1ccnc1)c1ccccc1Cl
26 | 68 to 70 | Cc1cccc(SC2=C(O)CC(CCc3ccccc3)(c3ccccc3)OC2=O)c1 (stereo not given)
27 | 167 to 169 | Cc1ccc(CCc2ccccc2Br)c(NC=O)c1
28 | 184 to 186 | O=C(Nc1c[nH]nc1C(=O)NCCNc1ccccc1)c1ccccn1
29 | 125 | O=C(O)C1=C2OCOc3cccc1c32
30 | 255 to 256 | COc1cc(O)c2c(=O)cc(C(=O)Nc3ccc(CC4SC(=O)NC4=O)cc3)oc2c1 (stereo not given)
31 | 176 to 177 | CNS(=O)(=O)c1ccc(C2=C(c3cccc(F)c3)C(=O)C(C)(C)O2)cc1
32 | 161 to 162 | O=C1CCCc2c1c1cccc(Cl)c1n2Cc1ccccc1
33 | 198 to 200 | O=C(O)Cc1ccc(N2CC3=C(CC=CC3)C2=O)cc1
34 | 81 to 82 | CCc1nc(-c2ccc(OCCn3ccnc3)cc2)no1
35 | 139 to 145 | Cc1cc(Cl)c(C(=O)O)c(Cl)c1
36 | 110 to 111 | COC(=O)C(=O)c1ccc(S(=O)(=O)CCOc2ccc3ccccc3c2)cc1
37 | 185 to 187 | CCOCc1nc2c(N)nc3cc(-c4cccc(C(=O)N5CCOCC5)c4)cnc3c2n1CC(C)C
38 | 96 | C[C@H]1C[C@H](OC(=O)C(C)(C)Oc2ccc(-c3ccccc3)cc2)CC(C)(C)C1 (relative stereo)
39 | 230 | CC1(C)CC(=O)Nc2c(CCN3CCN(c4noc5ccccc45)CC3)cc(F)cc21
40 | 95 to 105 | CCCCCCCCCCCCCOc1ccc(CNc2ccc(C(=O)OCC)cc2)cc1
41 | 182 to 185 | CC(CCCCCCC(=O)O)C1CCC2C3CCC4CC(O)CCC4(C)C3CC(O)C12C (stereo not given)
42 | 132 | COc1ccc([C@]2(C)CNC(=O)O2)cc1OC1CCC1
43 | 140 to 142 | Cn1cc(-c2cccc(N3CCc4c(sc5c4CCCC5)C3=O)c2CO)cc(Nc2ccc(C3CNC3)cn2)c1=O
44 | 132 to 136 | CC(C)COc1c(-c2ccc(S(N)(=O)=O)cc2)cnn(-c2ccc(F)cc2)c1=O
45 | 167 to 169 | CC1(C)Sc2oc(S(N)(=O)=O)cc2C1=O
46 | 54 to 55 | CC(C)(C)OC(=O)N1CCC(O)(CS)CC1

Row | melting point [°C] | Compound
47 | 141 to 145 | CC(=O)C1=C(C)NC(C)=C(C(=O)CCCCCCCN2CCC(c3ccccc3)(c3ccccc3)CC2)C1c1cccc([N+](=O)[O-])c1 (stereo not given)
48 | 200 | CC(C)N1C(=O)C(C(N)=O)N(c2cc(Cl)cc(Cl)c2)C1=O (stereo not given)
49 | 104 to 106 | O=C(c1cc(C(F)(F)F)cc(C(F)(F)F)c1)N1CCN(C(=O)CN2CCC(O)(c3ccccc3)CC2)C(c2ccc(Cl)c(Cl)c2)C1 (racemic)
50 | 264 to 268 | O=C(O)c1cn(-c2ccc(F)cc2F)c2c(F)c(N3Cc4ccccc4C3)c(F)cc2c1=O
51 | 141 to 142 | Cc1nn(Cc2ccccc2)c(=O)[nH]c1=O
52 | 85 to 86 | COC(=O)C(C)(COS(C)(=O)=O)C(=O)c1ccc(Cl)cc1 (stereo not given)
53 | 172 to 173 | CCOC(=O)c1cc2c(nc(C)n2C)c2c1CCC(c1ccccc1)O2 (stereo not given)
54 | 243 to 245 | Nc1c(-c2ccc(I)cc2)nc2ccc(Cl)cc2c1C(=O)O
55 | 105 to 106 | O=C1Cc2cccc(Oc3cccc(Cl)c3)c2O1
56 | 112 to 113 | O=C(Cc1ccc(OCc2ccccc2)cc1)P(=O)(O)O
57 | 189 to 191 | CC(C)N(CCN1C(=O)/C(=N/NC(N)=O)c2ccccc21)C(C)C
58 | 79 to 81 | C=Cc1cc(C(=O)OC)c(NC(C)=O)cc1C(F)(F)F
59 | 115 to 117 | CC(O)c1cccc(OCc2cccc(C(=O)O)c2)c1 (stereo not given)
60 | 135 to 137 | CCn1nc(C(=O)NC2CN(C)CCN(Cc3cccc(C)c3)C2)c2ccccc21 (stereo not given)
61 | 222 | O=C(Nc1ccc(S(=O)(=O)c2ccccc2)cc1)N[C@@H](Cc1ccc(NC(=O)c2c(Cl)cccc2Cl)cc1)C(=O)O
62 | 138 to 140 | C=C(C)c1cccc2c(C(=O)O)cccc12
63 | 81 | CCOC(=O)C(=CN1c2ccc(F)c(F)c2OCC1COC)C(=O)OCC (stereo not given)
64 | 136 to 140 | NC(=O)c1cccc(OCc2ccccc2)c1
65 | 198 to 200 | O=C(Nc1cccc(C(F)(F)F)c1)c1ccccc1C(c1ccc(O)cc1)c1ccc(O)cc1
66 | 57 to 59 | CCCSc1cc(-c2ccc(C(F)(F)F)cc2)c(F)cc1[N+](=O)[O-]
67 | 106 to 108 | Cc1ncnn1-c1ccc(N)cc1F

Row | Compound | melting point [°C]
68 | O=C1CC2c3ccccc3CCN2C2CCCC12 (stereo not given) | 101 to 102
69 | COc1ccc(C=Cc2cc(I)c(OC)c(OC)c2)cc1O | 92 to 94
70 | CCOC(=O)c1nnc2n1-c1sc(Cl)cc1C(c1ccccc1Cl)=NC2 | 180 to 182
